Results as given in PubChem BioAssay (NCI).
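Each compound was tested at five concentrations against cells in 96-well plates for 48 hours. GI50 marks 50% less growth. TGI is the concentration that stops growth completely.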

Legend:
Assay in all cases: NCI-60 cell line screen, 48 h; in the data active = GI50 below about 0.43 µM; inactive = the rest
[1] = test system: HCT-15 colon
[2] = test system: SNB-78 CNS
[3] = test system: HCT-116 colon
[4] = test system: M19-MEL melanoma
[5] = test system: HT29 colon
[6] = test system: NCI-H460 lung
[7] = test system: KM20L2 colon
[8] = test system: XF 498 CNS

O=c1c(O)cc2c(O)oc3c(=O)c(O)c(O)c4c(O)oc1c2c43
> 100 µM: TGI [1] | TGI [2] | TGI [3] | TGI [5] | TGI [6] | TGI [7]
25 µM: TGI [4]

C=C1C(=O)c2cc3c(cc2C(c2cc(OC)c(OC)c(OC)c2)[C@@H]1C(=O)O)OCO3 (some centres undefined)
> 100 µM: TGI [1] | TGI [2] | TGI [3] | TGI [4] | TGI [5] | TGI [6]

C=C(COC(C)=O)CC(/C=C(\C)CC/C=C(\C)CO)OC(C)=O (centres undefined)
> 100 µM: TGI [1] | TGI [8] | TGI [2] | TGI [3] | TGI [4] | TGI [5] | TGI [6] | TGI [7]

N#Cc1c(-c2ccccc2)cc(-c2cccs2)c(C#N)c1N
> 100 µM: TGI [1] | TGI [8] | TGI [2] | TGI [3] | TGI [5] | TGI [6] | TGI [7]

C=C1c2[nH]c3ccccc3c2CC(C(=O)O)N1C(O)c1ccc(S(=O)(=O)O)cc1 (centres undefined)
> 100 µM: TGI [8] | TGI [2] | TGI [3] | TGI [4] | TGI [5] | TGI [6]

O=C([O-])CCc1ccccc1.O=C([O-])CCc1ccccc1.O=C([O-])CCc1ccccc1.O=C([O-])CCc1ccccc1.[Mo+2].[Mo+2]
inactive: GI50 [1] > 100 µM | GI50 [3] > 100 µM | GI50 [4] > 100 µM | GI50 [5] > 100 µM | GI50 [6] > 100 µM | GI50 [7] > 100 µM
> 100 µM: TGI [1] | TGI [3] | TGI [4] | TGI [5] | TGI [6] | TGI [7]

OCCCc1cnco1
> 100 µM: TGI [1] | TGI [8] | TGI [2] | TGI [3] | TGI [4] | TGI [5] | TGI [6] | TGI [7]

NC(=S)N/N=C(\CCC(=O)Nc1ccccc1[N+](=O)[O-])CC(=O)c1ccco1
> 100 µM: TGI [1] | TGI [8] | TGI [2] | TGI [3] | TGI [4] | TGI [5] | TGI [6] | TGI [7]

C=CCC12CCC(=O)[C@@]1(C)CC=C(O)C2=O (some centres undefined)
> 100 µM: TGI [1] | TGI [2] | TGI [3] | TGI [4] | TGI [5] | TGI [6] | TGI [7]

O=C1C(=C([O-])c2ccccc2)C(=O)c2ccccc21.O=C1C(=C([O-])c2ccccc2)C(=O)c2ccccc21.[Co+2]
inactive: GI50 [3] > 100 µM | GI50 [4] > 100 µM | GI50 [5] > 100 µM | GI50 [7] > 100 µM
> 100 µM: TGI [3] | TGI [4] | TGI [5] | TGI [7]

CCc1cccc(CC)c1NC(=O)CC1SC(N)=NC1=O (centres undefined)
> 100 µM: TGI [1] | TGI [8] | TGI [2] | TGI [3] | TGI [4] | TGI [5] | TGI [6]

O=c1nc(N2CCCC2)nc(N2CCCC2)s1
> 100 µM: TGI [1] | TGI [8] | TGI [2] | TGI [3] | TGI [4] | TGI [5] | TGI [6] | TGI [7]

CC(=O)CC(=O)NC=O
> 100 µM: TGI [1] | TGI [8] | TGI [2] | TGI [3] | TGI [4] | TGI [5] | TGI [6] | TGI [7]

COC1=CC(=O)OC(/C=C(C)/C=C/C2=C(C)CCCC2(C)C)C1 (centres undefined)
> 100 µM: TGI [2] | TGI [3] | TGI [4] | TGI [5] | TGI [6] | TGI [7]

CC(=O)OCC1OC([Se-])C(OC(C)=O)C(OC(C)=O)C1OC(C)=O.N#CCC[PH+](CCC#N)CCC#N.[Au+] (centres undefined)
inactive: GI50 [1] 3.92 µM | GI50 [8] 8.09 µM | GI50 [2] 20.1 µM | GI50 [3] 3.85 µM | GI50 [4] 3.11 µM | GI50 [5] 4.73 µM | GI50 [6] 4.95 µM | GI50 [7] 7 µM
> 27.9 µM: TGI [4]
41.1 µM: TGI [7]
79.3 µM: TGI [2]
29.6 µM: TGI [6]
39.7 µM: TGI [5]
23.4 µM: TGI [1]
34.6 µM: TGI [8]
> 50.2 µM: TGI [3]

N#Cc1ccc(C(C2C(=O)NC(=O)NC2=O)C2C(=O)NC(=O)NC2=O)cc1
> 100 µM: TGI [1] | TGI [3] | TGI [4] | TGI [5] | TGI [6] | TGI [7]

CC(=O)SC(SC(C)=O)SC(C)=O
> 100 µM: TGI [1] | TGI [2] | TGI [3] | TGI [4] | TGI [5] | TGI [6] | TGI [7]

CCC1c2cc3n(c(=O)c2COC1O)Cc1c-3nc2ccccc2c1Cl (centres undefined)
> 100 µM: TGI [1] | TGI [8] | TGI [2] | TGI [3] | TGI [4] | TGI [5] | TGI [6] | TGI [7]

COc1cc(C2C(C(=O)O)=C(COC(C)=O)Oc3cc4c(cc32)OCO4)cc(OC)c1OC(C)=O (centres undefined)
> 100 µM: TGI [1] | TGI [8] | TGI [2] | TGI [3] | TGI [4] | TGI [5] | TGI [6] | TGI [7]

COC(=O)c1nc(C(=O)OC)c2c([nH]c3ccccc32)c1C(=O)OC
> 100 µM: TGI [1] | TGI [8] | TGI [2] | TGI [3] | TGI [5] | TGI [6]

O=C(Cc1ccccc1)N/N=C(/c1nc2ccc([N+](=O)[O-])cc2[nH]c1=O)C(O)c1ccccc1Cl (centres undefined)
> 100 µM: TGI [1] | TGI [8] | TGI [2] | TGI [3] | TGI [4] | TGI [5] | TGI [6]
